Test results: patent US7459277B2, “Mammalian T1R3 sweet taste receptors” (The Regents of the University of California, priority 2003, dated 2008)

Legend:
[1] = tested on: T1R2 KO mice expressing a human T1R2 gene; experiment: Behavioral taste responses of mice expressing a human T1R2 transgene; type: in vivo, mouse; conditions: humanized T1R2 mice (T1R2 KO + hT1R2 transgene); monellin ~10 uM, thaumatin ~5 uM, aspartame 10 mM, glycyrrhizic acid 500 uM, neohesperidin dihydrochalcone 400 uM
[2] = tested on: rodents; conditions: 100 times higher concentrations than sweet to humans; cited from earlier work
[3] = tested on: humans; conditions: sub-millimolar concentrations; cited from earlier work
[4] = target: T1, human T1R2 and mouse T1R3 GPCRs (UniProt Q8TE23+Q925D8); experiment: HEK cells transfected with human T1R2 and mouse T1R3; type: cell-based
T1 construct: expressed in transfected cells; host or cells: HEK cells
T1 sequence (Q8TE23 20-839): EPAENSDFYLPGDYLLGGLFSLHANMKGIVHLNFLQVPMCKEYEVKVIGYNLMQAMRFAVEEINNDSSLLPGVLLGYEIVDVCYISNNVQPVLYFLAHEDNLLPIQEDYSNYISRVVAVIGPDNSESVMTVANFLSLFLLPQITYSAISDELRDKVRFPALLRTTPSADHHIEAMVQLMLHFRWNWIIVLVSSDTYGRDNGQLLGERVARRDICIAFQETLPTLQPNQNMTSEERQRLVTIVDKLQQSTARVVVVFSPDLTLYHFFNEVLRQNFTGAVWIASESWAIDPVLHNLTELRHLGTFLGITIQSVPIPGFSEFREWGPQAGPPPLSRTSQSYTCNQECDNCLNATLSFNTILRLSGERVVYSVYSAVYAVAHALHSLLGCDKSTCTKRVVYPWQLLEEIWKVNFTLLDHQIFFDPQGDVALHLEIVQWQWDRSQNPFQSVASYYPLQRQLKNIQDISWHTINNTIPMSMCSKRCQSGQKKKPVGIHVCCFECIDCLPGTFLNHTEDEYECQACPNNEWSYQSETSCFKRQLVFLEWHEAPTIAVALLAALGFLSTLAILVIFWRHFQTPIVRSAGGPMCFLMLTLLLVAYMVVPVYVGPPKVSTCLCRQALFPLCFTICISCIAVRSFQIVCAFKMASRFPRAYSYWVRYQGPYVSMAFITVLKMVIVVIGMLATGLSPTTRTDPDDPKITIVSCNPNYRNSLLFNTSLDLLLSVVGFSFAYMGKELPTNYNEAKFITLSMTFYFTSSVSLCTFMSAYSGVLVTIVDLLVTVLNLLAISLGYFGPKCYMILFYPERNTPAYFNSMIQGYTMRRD
T1 sequence (Q925D8 21-858): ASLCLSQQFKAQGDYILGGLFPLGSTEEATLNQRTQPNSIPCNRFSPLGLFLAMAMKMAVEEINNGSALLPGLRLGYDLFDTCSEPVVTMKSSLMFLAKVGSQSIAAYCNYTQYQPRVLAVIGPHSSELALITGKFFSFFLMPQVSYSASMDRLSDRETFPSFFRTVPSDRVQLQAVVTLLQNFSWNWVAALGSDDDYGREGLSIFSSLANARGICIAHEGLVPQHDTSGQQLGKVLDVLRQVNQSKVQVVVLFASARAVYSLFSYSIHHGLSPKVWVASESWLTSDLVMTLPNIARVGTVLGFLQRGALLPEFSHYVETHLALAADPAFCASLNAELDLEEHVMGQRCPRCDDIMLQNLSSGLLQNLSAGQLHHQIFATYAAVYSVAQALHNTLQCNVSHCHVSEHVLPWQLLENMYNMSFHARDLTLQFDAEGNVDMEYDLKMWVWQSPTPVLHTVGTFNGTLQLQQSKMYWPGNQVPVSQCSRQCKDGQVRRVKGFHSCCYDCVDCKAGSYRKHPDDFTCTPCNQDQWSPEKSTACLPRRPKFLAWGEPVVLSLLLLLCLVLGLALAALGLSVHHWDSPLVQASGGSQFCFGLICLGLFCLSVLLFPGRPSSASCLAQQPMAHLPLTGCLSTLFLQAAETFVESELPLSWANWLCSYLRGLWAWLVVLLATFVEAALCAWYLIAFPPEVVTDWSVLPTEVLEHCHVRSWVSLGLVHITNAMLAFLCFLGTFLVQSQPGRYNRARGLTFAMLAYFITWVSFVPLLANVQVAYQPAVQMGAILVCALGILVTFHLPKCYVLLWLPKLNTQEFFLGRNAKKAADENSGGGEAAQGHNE
Procedure: (§1) We generated mice that were homozygous for the T1R2 KO allele, but instead expressed a human T1R2 transgene in the native “T1R2-cells”. A 12 kb genomic clone containing the T1R2 regulatory sequences was fused to a hT1R2 full length cDNA and introduced into T1R2 KO mice. Multiple independent lines were assayed for their selectivity and sensitivity to sweet tastants. To examine expression of hT1R2, we performed two-color fluorescent in situ hybridization experiments in transgenic animals carrying the wild type mT1R2 allele. […] Taken together, these experiments validate T1Rs as key determinants of differences in sweet taste selectivity and specificity between rodents and humans, and further substantiate T1R2+3, and T1R2-expressing cells, as an principal mediator of sweet taste in vivo. Finally, we propose that polymorphisms in both T1R2 and T1R3 are important determinants of human individual sweet taste preferences.
(§2) Modified HEK-293 cells (PEAK^rapid cells; Edge BioSystems, Md.) were grown, transfected with T1Rs and promiscuous G-proteins and assayed for functional responses to tastants by Ca-imaging essentially as described previously (Nelson, G. et al., Cell, 106, 381-390 (2001)). […] Acquisition and analysis of fluorescence images used TILL-Vision software.

[5] = target: T2, human T1R2 and human T1R3 (Homo sapiens, UniProt Q7RTX0+Q8TE23); experiment: Cells transfected with human T1R2 and human T1R3; type: cell-based
T2 construct: expressed in transfected cells; host or cells: cells (HEK inferred from the preceding sentence and b309)
T2 sequence (Q8TE23 20-839): T1 sequence (Q8TE23 20-839)
T2 sequence (Q7RTX0 21-852): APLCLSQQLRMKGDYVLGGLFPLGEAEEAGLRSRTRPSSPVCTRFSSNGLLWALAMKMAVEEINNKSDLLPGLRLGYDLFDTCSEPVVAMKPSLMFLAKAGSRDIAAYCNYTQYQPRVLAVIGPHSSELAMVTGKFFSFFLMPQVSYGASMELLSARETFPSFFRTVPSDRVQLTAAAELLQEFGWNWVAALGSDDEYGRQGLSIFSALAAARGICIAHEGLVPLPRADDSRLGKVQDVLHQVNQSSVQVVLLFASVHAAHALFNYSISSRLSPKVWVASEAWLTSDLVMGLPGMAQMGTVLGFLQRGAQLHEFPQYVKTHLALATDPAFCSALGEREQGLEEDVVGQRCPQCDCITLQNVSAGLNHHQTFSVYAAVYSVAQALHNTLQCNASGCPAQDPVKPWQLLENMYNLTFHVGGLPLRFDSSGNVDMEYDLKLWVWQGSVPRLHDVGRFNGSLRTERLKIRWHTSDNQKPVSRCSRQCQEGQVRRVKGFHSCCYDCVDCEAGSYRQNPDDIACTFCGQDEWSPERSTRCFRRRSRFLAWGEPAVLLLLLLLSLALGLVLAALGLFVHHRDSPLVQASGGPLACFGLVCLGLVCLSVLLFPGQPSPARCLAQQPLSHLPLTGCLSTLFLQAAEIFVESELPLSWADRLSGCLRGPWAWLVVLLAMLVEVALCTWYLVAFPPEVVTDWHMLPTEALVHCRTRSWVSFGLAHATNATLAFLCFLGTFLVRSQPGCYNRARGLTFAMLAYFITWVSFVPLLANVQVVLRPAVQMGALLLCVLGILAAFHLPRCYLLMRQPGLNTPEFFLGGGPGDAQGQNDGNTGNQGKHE
Procedure: as §1, §2

cell response [4]: do not respond
cell response [5]: robustly respond
SMILES: COc1ccc(CCC(=O)c2c(O)cc(O[C@@H]3O[C@H](CO)[C@@H](O)[C@H](O)[C@H]3O[C@@H]3O[C@@H](C)[C@H](O)[C@@H](O)[C@H]3O)cc2O)cc1O [neohesperidin dihydrochalcone]
behavioral response to human sweet tastants [1]: still do not respond
preference in rodents [2]: no preference
sweet taste to humans [3]: taste sweet
